The values below come from publication PMC12040969, “Design, synthesis, in silico studies, and apoptotic antiproliferative activity of novel thiazole-2-acetamide derivatives as tubulin polymerization inhibitors” (Frontiers in Chemistry, 2025).

For series [1], the system named is tubulin. The arrangement: method as in El-Abd et al., 2022. The settings on record: ref El-Abd et al., 2022; read-out: Tubulin polymerization IC50; cited from earlier work.
The subject of series [2] is Caspase-9 in MDAMB-231 cancer cell line. In words: Caspase-9 activation assay. The settings on record: MDAMB-231 cells. The class given is cell-based, human. As to the method:
[…]. Compound 10o was the least efficient derivative as caspase-9 activators (0.90 ng/mL).
(§1) […]. Supplementary Appendix A provides more information.

Series [3] relates to four human cancer cell lines (HCT-116, PC-3, MCF-7, MDAMB-231). In words: Antiproliferative assay, mean of four cell lines (GI50). The settings on record: Homo sapiens, read-out: GI50 (average IC50).
Series [4] concerns pancreatic - MDAMB-231. In words: Antiproliferative assay (MTT) MDAMB-231. The note with it: read-out: Antiproliferative activity IC50 ± SEM (µM) MDAMB-231; MDAMB-231, MTT.
In series [5] the test system is - MDAMB-231. The experiment in a line: Antiproliferative assay (MTT) MDAMB-231.
For series [6], the system named is prostatic - PC-3. In words: Antiproliferative assay (MTT) PC-3.
Series [7] relates to tubulin. The experiment in a line: Tubulin polymerization inhibition assay (Cytoskeleton kit).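 As to all read-outs here: Cell-free tubulin polymerization read by fluorescent reporter enhancement over a 30 min reaction, with the compound-free kit control taken as 100% activity and inhibition relative to it.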 The note with it: for Tub. enzyme inhibition assay %inhibition: 30 min, codes 522-537 run; for Tub. enzyme inhibition assay K. Activity: control = 120, codes 522-537 run.
Series [8] relates to breast - MCF-7. The experiment in a line: Antiproliferative assay (MTT) MCF-7.
The test system of series [9] is Bcl-2 in MDAMB-231 cancer cell line. In words: Bcl-2 level assay. It is filed as cell-based, human. The settings on record: MDAMB-231 cells.
Excerpt: as §1

The test system of series [10] is Caspase-3 in MDAMB-231 cancer cell line. The experiment in a line: Caspase-3 activation assay. It is filed as cell-based, human. The note with it: MDAMB-231 cells; for Caspase-3 Fold change: relative to untreated control.
Excerpt: as §1

For series [11], the system named is Bax in MDAMB-231 cancer cell line. The experiment in a line: Bax level assay. The class given is cell-based, human. The settings on record: MDAMB-231 cells.
Excerpt: as §1

The nature of series [12]: Cell viability assay (MTT), normal cells. It is filed as cell-based. The note with it: human, MCF-10A normal mammary gland epithelial cells, four-day incubation.
In series [13] the test system is colon - HCT-116. In words: Antiproliferative assay (MTT) HCT-116.

Each structure is given as a SMILES string. “And” between values parts separate entries of the source, which are not always exact repeats. Equal values may be shown once. Read-outs that look alike come from different tables or passages of the source.

For the compound `COc1ccc(/C=C\c2cc(OC)c(OC)c(OC)c2)cc1O` [CA-4, Combretastatin A4, reference compound], the IC50 in series [1] was […].

Regarding `Cc1ccc(/C=C/C(=O)c2sc(SCC(=O)Nc3nccs3)nc2C)cc1` [Compound 13d, (E)-2-((4-methyl-5-(3-(p-tolyl)acryloyl)thiazol-2-yl)thio)-N-(thiazol-2-yl)acetamide], the “Caspase-9 Conc” value in series [2] is 1.50 ng/mL and 1.50 ± 0.10 ng/mL. Also, in series [2] (relative to untreated control), the “Caspase-9 Fold change” value is reported as 15 fold. Moreover, the IC50 in [3] amounted to 8 µM; in series [4], 5 ± 0.3 µM; in series [6] (read-out: Antiproliferative activity IC50 ± SEM (µM) PC-3, PC-3, MTT) it was 9 ± 0.8 µM; in series [7] (read-out: Tubulin inhibition IC50 ± SEM, triplicate for each tested concentration) it was 3.68 ± 0.14 µM; in series [8] (read-out: Antiproliferative activity IC50 ± SEM (µM) MCF-7, MCF-7, MTT), 7 ± 0.4 µM; in series [13] (read-out: Antiproliferative activity IC50 ± SEM (µM) HCT-116, HCT-116, MTT), 9 ± 0.9 µM. Also, the “Average of Relative viability of cells (%)” value came out at 71.2% in series [5] (MDAMB-231, 1.56 µM); 57.9% in series [5] (MDAMB-231, 3.125 µM); 45.6% in series [5] (MDAMB-231, 6.25 µM); 35.2% in series [5] (MDAMB-231, 12.5 µM); 15.6% in [5] (MDAMB-231, 25 µM); 11.3% in [5] (MDAMB-231, 50 µM). Besides, the “Average of Relative viability of cells (%)” value in [5] (MDAMB-231, 100 µM) was determined as 7.5%; in series [6] (PC-3, 1.56 µM), 97.1%; in series [6] (PC-3, 3.125 µM) it was 83.3%; in series [6] (PC-3, 6.25 µM), 57.8%; in series [6] (PC-3, 12.5 µM), 35.6%; in [6] (PC-3, 25 µM), 20.5%. Besides, the “Average of Relative viability of cells (%)” value in series [6] (PC-3, 50 µM) worked out at 19.4%; in [6] (PC-3, 100 µM), 7.6%; in series [8] (MCF-7, 1.56 µM), 88.6%; in series [8] (MCF-7, 3.125 µM) it was 71.2%; in [8] (MCF-7, 6.25 µM), 45.2%; in [8] (MCF-7, 12.5 µM) it was 32.4%. Besides, the “Average of Relative viability of cells (%)” value in [8] (MCF-7, 25 µM) stood at 24.5%; in series [8] (MCF-7, 50 µM), 17.1%; in series [8] (MCF-7, 100 µM), 8.3%; in series [13] (HCT-116, 1.56 µM), 90.6%; in series [13] (HCT-116, 3.125 µM), 69.8%; in [13] (HCT-116, 6.25 µM) it was 63.9%. In addition, the “Average of Relative viability of cells (%)” value in series [13] (HCT-116, 12.5 µM) came to 32.7%; in series [13] (HCT-116, 25 µM), 26.5%; in series [13] (HCT-116, 50 µM), 17.4%; in series [13] (HCT-116, 100 µM), 9.2%. Moreover, the “Tub. enzyme inhibition assay %inhibition” value in series [7] (conc 0.01 (unit not given)) came to 6.76%; in series [7] (conc 0.1 (unit not given)), 21%; in series [7] (conc 1 (unit not given)), 47.4%; in series [7] (conc 10 (unit not given)), 68.5%; in series [7] (conc 100 (unit not given)), 87%. Further, the “Tub. enzyme inhibition assay K. Activity” value is 111.89 in [7] (conc 0.01 (unit not given)); 94.779 in series [7] (conc 0.1 (unit not given)); 63.07 in series [7] (conc 1 (unit not given)); 37.815 in [7] (conc 10 (unit not given)); 15.546 in [7] (conc 100 (unit not given)). Also, the “Tub. (IC50) IC50±SD” value in series [7] (supplement raw data, lab codes) was 1.53 ± 0.06 µg/mL. In series [9], the “Bcl-2 Conc” value amounted to 0.80 ng/mL. The “Bcl-2 Fold reduction” value in series [9] (relative to untreated control) is recorded as 6 fold. In addition, in series [10], the “Caspase-3 Conc” value is 690 ± 5 pg/mL. Also, the “Caspase-3 Fold change” value in series [10] is recorded as 11 fold; in series [10] (listed as 13g), about 10 fold. Further, in [11], the “Bax Conc” value was 320 pg/mL and 320 ± 8 pg/mL. The “Bax Fold change” value in series [11] (relative to untreated control) turned out to be 40 fold. Moreover, in series [12], the viability at 96 h, 50 µM was 90%.

As to `COc1cc(-c2csc(NC(=O)CNc3ccc([N+](=O)[O-])cc3)n2)cc(OC)c1OC` [IV], the IC50 in series [1] is 2 ± 0.12 µM.

Broadly, the IC50 is the point on the concentration scale where inhibition reaches its midpoint. The term viability denotes the share of living cells, or the viability signal relative to a control. High values mean better survival, low ones a greater loss of cells.
